From patent publication US10376557B2, “Peptide fragments for inducing synthesis of extracellular matrix proteins” (HELIX BIOMEDIX, INC., priority 2006, dated 2019)

Columns and labels:
Type in all cases: cell-based
[1] = tested on: human skin epithelial cells (CRL-2592); assay: In vitro scratch wound closure of skin epithelial cell monolayer; conditions: for W-size (wound size) 0 hr: prior to peptide treatment; for W-size (wound size) 6 hr / % closure 6 hr / W-size (wound size) 10 hr / % closure 10 hr: peptide 20 to 40 μg/ml; for % closure 6 hr: PBS controls 19.40%, 19.20%; for % closure 10 hr: PBS controls 41.70%, 42.30%; for wound closure compared to PBS alone (in words): epithelial cell monolayer
Method: Wound healing experiments were performed on monolayers of human skin epithelial cells (CRL-2592) plated onto 12-well plates. Cells were serum-starved for 24 hours before experimentation. Confluent monolayers of CRL-2592 were wounded using a P200 (200-μL) pipette tip. The wounds were washed and picture-documented prior to peptide treatment. Peptides were added to a final concentration from 20 to 40 μg/ml. Cells were kept in an incubator at 37° C., 5% CO2, and 92% humidity, except when images were being captured for a short period at room temperature. Wound closure was followed at 6-hour and 10-hour time points. PBS-treated wounds were used as negative controls for comparison purposes.

[2] = tested on: Human dermal fibroblasts; assay: SIRCOL collagen assay: soluble collagen released by dermal fibroblasts incubated with peptides; conditions: for Collagen / Collagen (μg): * = may not be significant, detection limit 2.5 μg; for Significant release of collagen at 24 h and 48 h: 25 μg/mL considered significant
Method: Several sequences identified in Examples 1 and 2 were synthesized using standard peptide chemistry and assayed for the stimulation of collagen from dermal fibroblasts. The synthesized peptides were amidated at the C-terminus, which rendered the tetrapeptides less susceptible to protease degradation and increased their solubility compared to the free acid forms. Human dermal fibroblasts were incubated in 96-well plates at 37° C. and 5% CO2 for 24 and 48 hours in 150 μL complete cell culture media (Cascade Biologics, Portland, Oreg.; Cat. No. M-106-500), supplemented with Low Serum Growth Supplement (Cascade Biologics, Portland, Oreg.; Cat. No. […] Each well was seeded with 10,000 cells. Following the incubation, 100-μL medium samples were recovered from each well and assayed for collagen production
The assays were performed by Tebu-bio Laboratories (France) using the SIRCOL™ Collagen Assay Kit (Biocolor Assays, UK) following the manufacturer's protocol. The SIRCOL™ Collagen Assay is a quantitative dye-binding method designed for the analysis of soluble collagens released into culture medium by mammalian cells during in vitro culture. The collagen of the tested samples binds to the anionic SIRCOL™ dye. The collagen-dye complexes precipitate out of solution and are pelleted by centrifugation. The recovered collagen-dye pellet was dissolved in an alkaline solution prior to absorbance measurements. Duplicate measurements were taken at the 24 and 48 hour times from two separate samples. The four measurements for each sample were averaged. The absorbance of reagent blanks, collagen standards, and samples were measured at 560 nm. The reagent blank absorbance was subtracted from the absorbance from each sample at 24 and 48 hours.
Two separate data sets were used to generate two collagen standard calibration curves. The first calibration curve was generated for purposes of calculating the quantity of collagen in samples H6 (combination of SEQ ID NOs:1-4), […] (SEQ ID NOs:1-8, respectively) and H15 (combination of SEQ ID NOs:5-8). The second calibration curve was generated for calculating the quantity of collagen in samples H16 (SEQ ID NO:9), H21-23 (SEQ ID NOs:10-12, respectively), H25-26 (SEQ ID NOs:13-14, respectively), or H29-30 (SEQ ID NOs:15-16, respectively), H32 (SEQ ID NO:17), H33 (combination of SEQ ID NOs:9-12), H34 (combination of SEQ ID NOs:11-14), H35 (combination of SEQ ID NOs:13-16), H36 (combination of SEQ ID NOs:1, 6, 5, 8), H37 (SEQ ID NO: 17) and H38 (SEQ ID NO:8) from the absorbance measurements was created by plotting the Abs560nm of the known collagen standards versus the respective concentrations of the collagen standards (in micrograms) each time a series of assays were performed. With respect to each data set, the same calibration curve was used for samples taken at the 24 and 48 hour times (Tables 2A and 2B). Accordingly, different standard curves were prepared immediately prior to performing each series of assays.
A linear regression was performed from plotting the Abs560nm values versus concentrations of the respective collagen standards using MICROSOFT EXCEL™. […] As the results were identical, only the 24-hour time period was used for the second series calibration curves. The formula of the line obtained on assay date 1 and assay date 2 of the second series of samples was y=0.0178x and y=0.0162x, respectively. The peptide LL-37 (SEQ ID NO:18) was used as a positive control as it has been widely reported to have an impact upon wound healing in man (Heilborn et al., The Cathelicidin Anti-Microbial Peptide LL-37 Is Involved In The Re-Epithelialization Of Human Skin Wounds And Is Lacking In Chronic Ulcer Epithelium, J. Invest. Dermato. 120:379-89 (2003). The assay detection limit defined by the manufacturer is 2.5 μg. […]

[3] = tested on: human skin fibroblast monolayer; assay: Wound closure in skin fibroblast monolayer (data not shown)
From the text: In vitro monolayer wound closure is a result of cell migration, which is important in many biological processes such as embryogenesis, angiogenesis, inflammatory reactions and wound repair. These processes are thought to be regulated by interactions with other cells, cytokines and ECM proteins.

[4] = 24 hours, peptide 50 μg/mL, 100 μL medium sample
[5] = 48 hours, peptide 50 μg/mL, 100 μL medium sample
[6] = check mark = yes, peptide 50 μg/mL
[7] = 24 hours, peptide 50 μg/mL, second series
[8] = 48 hours, peptide 50 μg/mL, second series
[9] = peptide 0.3 μg/mL (per Table 5)
[10] = 24 hours, peptide 0.3 μg/mL, second series
[11] = 48 hours, peptide 0.3 μg/mL, second series
[12] = check mark = yes, peptide 0.3 μg/mL

Substance: GEPG (Synthetic Peptide H11)
- W-size (wound size) 0 hr [1]: 48 arbitrary
- W-size (wound size) 6 hr [1]: 39 arbitrary
- % closure 6 hr [1]: 19%
- W-size (wound size) 10 hr [1]: 30 arbitrary
- % closure 10 hr [1]: 37.50%
- wound closure compared to PBS alone (in words) [1]: does not enhance wound closure or epithelial cell migration to any great extent
- Released collagen (μg/mL) 24 h ([2]; peptide 50 μg/mL (per Table 5)): 45 µg/mL
- Average (A560 nm) ([2]; 24 hours, peptide 50 μg/mL): 0.14
- Average minus blank (A560 nm) ([2]; 24 hours, peptide 50 μg/mL): 0.06
- Collagen [2, 4]: 4.5 µg
- Collagen produced (μg/mL) 24 hrs ([2]; [Peptide] 50 μg/mL): 45 µg/mL
- Released collagen (μg/mL) 48 h ([2]; peptide 50 μg/mL (per Table 5)): 21 µg/mL
- Average (A560 nm) ([2]; 48 hours, peptide 50 μg/mL): 0.15
- Average minus blank (A560 nm) ([2]; 48 hours, peptide 50 μg/mL): 0.03
- Collagen (μg) [2, 5]: 2.1* μg
- Collagen produced (μg/mL) 48 hrs ([2]; [Peptide] 50 μg/mL): 21 µg/mL
- Decrease in collagen release at 48 h v. 24 h [2, 6]: ✓

Substance: PGPP (Synthetic Peptide H26)
- wound closure in fibroblast monolayer (in words) [3]: does not induce wound closure
- W-size (wound size) 0 hr [1]: 25 arbitrary
- W-size (wound size) 6 hr [1]: 12 arbitrary
- % closure 6 hr [1]: 52%
- W-size (wound size) 10 hr [1]: 2.75 arbitrary
- % closure 10 hr [1]: 89%
- wound closure compared to PBS alone (in words) [1]: significantly induces wound closure
- Released collagen (μg/mL) 24 h ([2]; peptide 50 μg/mL (per Table 5)): 29 µg/mL
- Average (A560 nm) [2, 7]: 0.13
- Average minus blank (A560 nm) [2, 7]: 0.05
- Collagen [2, 7]: 2.9 µg
- Collagen produced (μg/mL) 24 hrs ([2]; [Peptide] 50 μg/mL): 29 µg/mL
- Released collagen (μg/mL) 48 h ([2]; peptide 50 μg/mL (per Table 5)): 35 µg/mL
- Average (A560 nm) [2, 8]: 0.12
- Average minus blank (A560 nm) [2, 8]: 0.06
- Collagen [2, 8]: 3.5 µg
- Collagen produced (μg/mL) 48 hrs ([2]; [Peptide] 50 μg/mL): 35 µg/mL
- Significant release of collagen at 24 h and 48 h [2, 6]: ✓

Substance: GEKG (Synthetic Peptide H14) [H14 = tested at 50 μg/mL, H38 = same peptide tested at 0.3 μg/mL]
- time for which collagen production was substantially maintained [2]: at least 48 hours
- collagen stimulation at the lower concentration (in words) ([2]; 0.3 μg/mL versus 50 μg/mL): not diminished
- collagen production compared to KTTKS ([2]; 24 and 48 hours): stimulated more collagen production than the KTTKS
- Released collagen (μg/mL) 24 h [2, 9]: 29 µg/mL
- Released collagen (μg/mL) 24 h ([2]; peptide 50 μg/mL (per Table 5)): 30 µg/mL
- amount of collagen induced compared to LL37 ([2]; 24 hours): about the same amount of collagen as LL37
- Average (A560 nm) [2, 10]: 0.13
- Average minus blank (A560 nm) [2, 10]: 0.05
- Collagen [2, 10]: 2.9 µg
- Average (A560 nm) ([2]; 24 hours, peptide 50 μg/mL): 0.12
- Average minus blank (A560 nm) ([2]; 24 hours, peptide 50 μg/mL): 0.04
- Collagen [2, 4]: 3.0 µg
- Collagen produced (μg/mL) 24 hrs ([2]; [Peptide] 0.3 μg/mL): 29 µg/mL
- Collagen produced (μg/mL) 24 hrs ([2]; [Peptide] 50 μg/mL): 30 µg/mL
- Released collagen (μg/mL) 48 h [2, 9]: 28 µg/mL
- Released collagen (μg/mL) 48 h ([2]; peptide 50 μg/mL (per Table 5)): 26 µg/mL
- Average (A560 nm) [2, 11]: 0.11
- Average minus blank (A560 nm) [2, 11]: 0.05
- Collagen [2, 11]: 2.8 µg
- Average (A560 nm) ([2]; 48 hours, peptide 50 μg/mL): 0.15
- Average minus blank (A560 nm) ([2]; 48 hours, peptide 50 μg/mL): 0.03
- Collagen [2, 5]: 2.6 µg
- Collagen produced (μg/mL) 48 hrs ([2]; [Peptide] 0.3 μg/mL): 28 µg/mL
- Collagen produced (μg/mL) 48 hrs ([2]; [Peptide] 50 μg/mL): 26 µg/mL
- Significant release of collagen at 24 h and 48 h [2, 12]: ✓
- Significant release of collagen at 24 h and 48 h [2, 6]: ✓
- maximal stimulating concentration ([2]; collagen production): ≤ 0.3 µg/mL

Substance: KTTKS [H32, reference compound]
- Released collagen (μg/mL) 24 h [2, 9]: 11 µg/mL
- Average (A560 nm) [2, 10]: 0.10
- Average minus blank (A560 nm) [2, 10]: 0.02
- Collagen (μg) [2, 10]: 1.1* μg
- Average (A560 nm) [2, 7]: 0.07
- Average minus blank (A560 nm) [2, 7]: −0.01
- Collagen (μg) [2, 7]: −0.5* μg
- Collagen produced (μg/mL) 24 hrs ([2]; [Peptide] 0.3 μg/mL): 11 µg/mL
- Released collagen (μg/mL) 48 h [2, 9]: 22 µg/mL
- Released collagen (μg/mL) 48 h ([2]; peptide 50 μg/mL (per Table 5)): 12 µg/mL
- Average (A560 nm) [2, 11]: 0.10
- Average minus blank (A560 nm) [2, 11]: 0.04
- Collagen (μg) [2, 11]: 2.2* μg
- Average (A560 nm) [2, 8]: 0.08
- Average minus blank (A560 nm) [2, 8]: 0.02
- Collagen (μg) [2, 8]: 1.2* μg
- Collagen produced (μg/mL) 48 hrs ([2]; [Peptide] 0.3 μg/mL): 22 µg/mL
- Collagen produced (μg/mL) 48 hrs ([2]; [Peptide] 50 μg/mL): 12 µg/mL
- Increase in collagen release at 48 h v. 24 h [2, 12]: ✓

Substance: GFPG (Synthetic Peptide H8)
- Released collagen (μg/mL) 24 h ([2]; peptide 50 μg/mL (per Table 5)): 15 µg/mL
- Average (A560 nm) ([2]; 24 hours, peptide 50 μg/mL): 0.10
- Average minus blank (A560 nm) ([2]; 24 hours, peptide 50 μg/mL): 0.02
- Collagen (μg) [2, 4]: 1.5* μg
- Collagen produced (μg/mL) 24 hrs ([2]; [Peptide] 50 μg/mL): 15 µg/mL
- Released collagen (μg/mL) 48 h ([2]; peptide 50 μg/mL (per Table 5)): 9 µg/mL
- Average (A560 nm) ([2]; 48 hours, peptide 50 μg/mL): 0.13
- Average minus blank (A560 nm) ([2]; 48 hours, peptide 50 μg/mL): 0.01
- Collagen (μg) [2, 5]: 0.9* μg
- Collagen produced (μg/mL) 48 hrs ([2]; [Peptide] 50 μg/mL): 9 µg/mL
